Read-outs that look alike come from different tables or passages of the source.
How the values were obtained:
[1] = tested on: human ovarian A2780 cancer cells; test: Cancer cell cytotoxicity, SRB assay; assay type: cell-based
Description: Cancer Cell Cytotoxicity. After plating, human ovarian A2780 cancer cells were treated with Ir^III complexes on day 3 at concentrations ranging from 0.5 μM to 100 μM. Solutions of the Ir^III complexes were made up in 0.125% DMSO to assist dissolution. Stock solutions of the IrIII complexes were firstly prepared in DMSO to assist dissolution, and then diluted into 0.9% saline and medium. After plating 5000 A2780 cells per well on day 1, IrIII complexes were added to the cancer cells on day 3 at concentrations ranging from 0.05 μM to 100 μM. Cells were exposed to the complexes for 24 h, washed, supplied with fresh medium, allowed to grow for three doubling times (72 h), and then the protein content measured (proportional to cell survival) using the sulforhodamine B (SRB) assay.^15 […]. The standard errors are based on two independent experiments of three replicates each.

[2] = Determination of pKa* of coordinated D2O by 1H NMR pH* titration; assay type: physicochemical; conditions: for pKa (deprotonation of coordinated D2O): calculated from pKa* according to Krezel and Bal (pKa=0.929pKa*+0.42); for pKa* (deprotonation of coordinated D2O): in D2O
Description: pH* Measurement. pH* values (pH meter reading without correction for effects of D on glass electrode) of NMR samples in D2O were measured at ca. 298 K directly in the NMR tube, before and after recording NMR spectra, using a Corning 240 pH meter equipped with a micro combination electrode calibrated with Aldrich buffer solutions of pH 4, 7 and 10. For determination of the pKa* value of aquated complexes, complexes were dissolved in D2O and 0.98 mol equiv of AgNO3 was added. The solution was stirred for 24 h at 298 K, and AgCl was removed by filtration.
Determination of pKa* Values. […] The chemical shifts of the chelating ligands or/and methyl group of Cp* protons were plotted against pH*. The pH* titration curves were fitted to the Henderson-Hasselbalch equation, with the assumption that the observed chemical shifts are weighted averages according to the populations of the protonated and deprotonated species.
The changes in the ^1H NMR chemical shifts for the protons of the coordinated chelating ligands in compounds ZL25A, ZL54A, ZL38A, chelating ligands and methyl group in Cp* or Cp^xph in compounds ZL04A, ZL07A, ZL37A, ZL03A, and methyl group in Cp* in compound ZL01A were followed with change in pH* over a range of 2-11. The mean pKa* value was taken for each complex.
When the pH* values of the solutions were increased from about 2 to 11, the NMR peaks assigned to ZL01A, ZL03A, ZL04A, ZL07A, ZL25A, ZL37A, ZL38A and ZL54A gradually shifted to high field in the spectrum.
When the pH* values of the solutions were increased from about 2 to 10, the NMR peaks assigned to aqua complexes ZL47A, ZL49A, ZL69A and ZL74A gradually shifted to high field in the spectrum. The resulting pH titration curves were fitted to the modified Henderson-Hasselbalch equation, from which the pKa* values of the coordinated water were determined.

9-ethyladenine (9-EtA) = test: Interactions with nucleobases: 9-EtA adduct formation (1H NMR); assay type: binding; conditions: 1 mM, 1 mol equiv 9-EtA, D2O, 310 K
Description: (§1) Interactions with Nucleobases. The reaction of ZL01, ZL03, ZL04, ZL07, ZL25, ZL33, ZL37, ZL38, ZL43 and ZL54 and ZL33A with nucleobases typically involved addition of a solution containing 1-2 mol equiv of nucleobase in D2O, to an equilibrium solution of ZL01, ZL03, ZL04, ZL07, ZL25, ZL33, ZL37, ZL38, ZL43, ZL54 and ZL33A in a solution of 5% MeOD-d4/95% D2O (v/v). ^1H NMR spectra of these solutions were recorded at 310 K after various time intervals.
(§2) Since DNA is a potential target site for transition metal anticancer complexes,^18 nucleobase binding reactions of compounds ZL01, ZL03, ZL04, ZL07, ZL25, ZL33, ZL33A, ZL37, ZL38, ZL43 and ZL54 with nucleobase models 9-ethylguanine (9-EtG) and 9-ethyladenine (9-EtA), were investigated. Solutions of ZL01, ZL03, ZL04, ZL07, ZL25, ZL33, ZL37, ZL38, ZL43 and ZL54 (1 mM) (containing an equilibrium mixture of these complexes and their respective aqua adducts) with 1 mol equivalent of 9-EtG or 9-EtA in D2O were prepared, and ^1H NMR spectra were recorded at different time intervals.

9-ethylguanine (9-EtG) = test: Interactions with nucleobases: 9-EtG adduct formation (1H NMR); assay type: binding; conditions: 1 mM, 1 mol equiv 9-EtG (ZL33A: 2 mol equiv), D2O, 310 K
Description: as §1, §2
Interactions with Nucleobases. Since DNA is a potential target site for transition metal anticancer complexes,^23 the binding of 9-ethylguanine (9-EtG) to complexes ZL47, ZL49, ZL69, ZL74 and ZL107 was studied.

[3] = 24 h exposure, 72 h recovery, SRB, read-out: A2780 IC50
[4] = screening test, read-out: A2780 IC50, data from screening test

pKa (deprotonation of coordinated D2O) [2]	pKa* (deprotonation of coordinated D2O) [2]	Compound	IC50 [1, 3]	further results
–	–	Cc1c(C)c(C)[c-](C)c1C.[Cl-].[Ir+3].[O-]c1cccnc1-c1ncccc1O [ZL44, [(η^5-C5Me5)Ir(bipy(OH)O)Cl]]	17.2 µM	cytotoxic activity towards A2780 (in words) [1]: moderate or high activity
7.99	8.15	[(η^5-C5Me5)Ir(pico)OD2]^+ [ZL03A]	–	–
6.63	6.68	[(η^5-C5Me4C6H4C6H5)Ir(bipy)OD2]^2+ [ZL25A]	–	–
7.62	7.75	[(η^5-C5Me4C6H5)Ir(pico)OD2]^+ [ZL38A]	–	–
7.54	7.66	Cc1c(C)c(C)[c-](C)c1C.NCCN.[2H]O[2H].[Ir+3] [ZL01A, [(η^5-C5Me5)IrCl(en)OD2]^2+]	–	–
–	–	CN(C)c1ccc(N=Nc2ccccn2)cc1.Cc1c(C)c(-c2ccccc2)[c-](C)c1C.F[P-](F)(F)(F)(F)F.[Cl-].[Ir+3] [ZL109, [(η^5-C5Me4C6H5)Ir(azpy-NMe2)Cl]PF6]	–	IC50 [1, 4]: < 10 µM
–	–	CN(C)c1ccc(N=Nc2ccccn2)cc1.Cc1c(C)c(C)[c-](C)c1C.F[P-](F)(F)(F)(F)F.[Cl-].[Ir+3] [ZL64, [(η^5-C5Me5)Ir(azpy-NMe2)Cl]PF6]	–	IC50 [1, 4]: < 30 µM
–	–	Cc1c(C)c(-c2ccccc2)[c-](C)c1C.NCCN.[Cl-].[Ir+3].c1ccc([B-](c2ccccc2)(c2ccccc2)c2ccccc2)cc1 [ZL31, [(η^5-C5Me4C6H5)IrCl(H2NCH2CH2NH2—N,N)]BPh4]	17 µM	–
–	–	Cc1c(C)c(C)[c-](C)c1C.O=C([O-])c1ccccn1.[Cl-].[Ir+3] [ZL03, [(η^5-C5Me5)Ir(η^2—C5H4N-2-CO2)Cl]]	> 100 µM	Reaction with 9-EtA, extent of adduct formation (9-ethyladenine (9-EtA); 10 min): 80.8%; Reaction with 9-EtA, extent of adduct formation (9-ethyladenine (9-EtA); 24 h): 80.7%; Reaction with 9-EtG, extent of adduct formation (9-ethylguanine (9-EtG); 10 min): 100%; Reaction with 9-EtG, extent of adduct formation (9-ethylguanine (9-EtG); 24 h): 100%
–	–	Cc1c(C)c(C)[c-](C)c1C.Cc1ccnc(-c2cc(C)ccn2)c1.F[P-](F)(F)(F)(F)F.[Cl-].[Ir+3] [ZL55, [(η^5-C5Me5)Ir(bipy(Me)2)Cl]PF6]	> 100 µM	–
8.32	8.51	[(η^5-C5Me5)Ir(2-dfphpy)(D2O)]^+ [ZL74A]	–	–
–	–	Cc1c(C)c(C)[c-](-c2ccccc2)c1C.F[P-](F)(F)(F)(F)F.[Cl][Ir+2]1[N]2C=CC=c3c2c2c(c4nccnc34)=CC=C[N]21 [ZL89, [(η^5-C5Me4C6H5)Ir(dpq)Cl]PF6]	–	IC50 [1, 4]: < 5 µM
–	–	Cc1c(C)c(C)[c-](C)c1C.[Cl-].[Ir+3].[c-]1ccccc1C=Nc1ccccc1 [ZL51, [(η^5-C5Me5)Ir{C6H4-2-C(H)═NPh-κC,N}Cl]]	5 µM	cytotoxic activity towards A2780 (in words) [1]: moderate or high activity
–	–	[(η^5-C5Me4C6H5)Ir(phen)(H2O)]^2+ [ZL33A]	6.7 µM	Reaction with 9-EtA, extent of adduct formation (9-ethyladenine (9-EtA); 10 min): 0%; Reaction with 9-EtA, extent of adduct formation (9-ethyladenine (9-EtA); 24 h): 0%; Reaction with 9-EtG, extent of adduct formation (9-ethylguanine (9-EtG); 10 min): 65%; Reaction with 9-EtG, extent of adduct formation (9-ethylguanine (9-EtG); 24 h): 73%
–	–	Cc1c(C)c(C)[c-](-c2ccccc2)c1C.F[P-](F)(F)(F)(F)F.Oc1cccnc1-c1ncccc1O.[Cl-].[Ir+3] [ZL45, [(η^5-C5Me4C6H5)Ir(bipy(OH)2)Cl]PF6]	7.2 µM	–
–	–	Cc1c(C)c(-c2ccc(-c3ccccc3)cc2)[c-](C)c1C.F[P-](F)(F)(F)(F)F.[Ir+3].[c-]1ccccc1-c1ccccn1.c1ccncc1 (stereo not shown) [ZL105, [(η^5-C5Me4C6H4C6H5)Ir(2-phpy)(py)]PF6]	0.12 ± 0.02 µM	–

pKa (deprotonation of coordinated D2O) [2]	pKa* (deprotonation of coordinated D2O) [2]	Compound	IC50 [1, 3]	further results
–	–	Cc1c(C)c(C)[c-](C)c1C.[Cl-].[Cl][Ir]1[n+]2ccccc2-c2cccc[n+]21 [ZL04, [(η^5-C5Me5)Ir(bipy)Cl]Cl]	> 100 µM	Reaction with 9-EtA, extent of adduct formation (9-ethyladenine (9-EtA); 10 min): 0%; Reaction with 9-EtA, extent of adduct formation (9-ethyladenine (9-EtA); 24 h): 0%; Reaction with 9-EtG, extent of adduct formation (9-ethylguanine (9-EtG); 10 min): 28.2%
–	–	Cc1c(C)c(C)[c-](-c2ccc(-c3ccccc3)cc2)c1C.[Cl-].[Ir+3].[O-]c1cccnc1-c1ncccc1O [ZL46, {(η^5-C5Me4C6H4C6H5)Ir[bipy(OH)(O)]Cl}]	2.8 µM	–
–	–	CCC[c-]1c(C)c(C)c(C)c1C.[Cl-].[Ir+3].[c-]1ccccc1-c1ccccn1 [ZL100, [(η^5-C5Me4C3H7)Ir(2-phpy)Cl]]	–	IC50 [1, 4]: < 10 µM
–	–	Cc1c(C)c(C)[c-](-c2ccc(-c3ccccc3)cc2)c1C.[Cl-].[Cl][Ir+2].c1cnc2c(c1)c1nccnc1c1cccnc12 [ZL94, [(η^5-C6Me4C6H4C6H5)Ir(dpq)Cl]Cl]	–	IC50 [1, 4]: < 5 µM
–	–	Cc1c(C)c(C)[c-](-c2ccccc2)c1C.Cc1ccnc(-c2cc(C)ccn2)c1.F[P-](F)(F)(F)(F)F.[Cl-].[Ir+3] [ZL57, [(η^5-C5Me4C6H5)Ir(bipy(Me)2)Cl]PF6]	9.2 µM	–
–	–	CC(=O)C=C(C)[O-].Cc1c(C)c(C)[c-](C)c1C.[Cl-].[Ir+3] [ZL02, [(η^5-C5Me5)Ir(acac)Cl]]	> 100 µM	–
–	–	Cc1c(C)c(C)[c-](-c2ccc(-c3ccccc3)cc2)c1C.[Cl-].[Cl][Ir+2].c1ccc2nc3c4cccnc4c4ncccc4c3nc2c1 [ZL95, [(η^5-C5Me4C6H4C6H5Pr(dppz)Cl]Cl]	–	IC50 [1, 4]: < 5 µM
8.31	8.50	[(η^5-C5Me4C6H4C6H5)Ir(2-phpy)(D2O)]^+ [ZL49A]	–	–
–	–	Cc1c(C)c(C)[c-](-c2ccccc2)c1C.[Cl-].[Cl][Ir+2].c1ccc2nc3c4cccnc4c4ncccc4c3nc2c1 [ZL93, [(η^5-C5Me4C6H5)Ir(dppz)Cl]Cl]	–	IC50 [1, 4]: < 5 µM
7.38	7.50	[(η^5-C5Me4C6H4C6H5)Ir(phen)OD2]^2+ [ZL54A]	–	–
–	–	Cc1c(C)c(-c2ccc(-c3ccccc3)cc2)[c-](C)c1C.Fc1c[c-]c(-c2ccccn2)c(F)c1.[Cl-].[Ir+3] (stereo not shown) [ZL103, [(η^5-C5Me4C6H4C6H5)Ir(2-dfphpy)Cl]]	0.67 ± 0.11 µM	–
6.28	6.31	[(η^5-C5Me4C6H5)Ir(bipy)OD2]^2+ [ZL37A]	–	–
–	–	Cc1c(C)c(C)[c-](-c2ccc(-c3ccccc3)cc2)c1C.Cc1ccnc(-c2cc(C)ccn2)c1.F[P-](F)(F)(F)(F)F.[Cl-].[Ir+3] [ZL59, [(η^5-C5Me4C6H4C6H5)Ir(bipy(Me)2)Cl]PF6]	0.51 µM	–
8.87	9.10	[(η^5-C5Me5)Ir(tpy)(D2O)]^+ [ZL69A]	–	–
8.75	8.97	[(η^5-C5Me5)Ir(2-phpy)(D2O)]^+ [ZL47A]	–	–

Compound	pKa (deprotonation of coordinated D2O) [2]	pKa* (deprotonation of coordinated D2O) [2]	IC50 [1, 3]	further results
Cc1c(C)c(C)[c-](C)c1C.[2H]O[2H].[Ir+3].c1cnc2c(c1)ccc1cccnc12 [ZL07A, [(η^5-C5Me5)Ir(phen)OD2]^2+]	7.74	7.88	–	–
Cc1c(C)c(C)[c-](C)c1C.[2H]O[2H].[Ir+3].c1ccc(-c2ccccn2)nc1 [ZL04A, [(η^5-C5Me5)Ir(bipy)OD2]^2+]	6.86	6.94	–	–
